The results in this text go back to patent US7314969B2, “Methods and compositions for the introduction of molecules into cells” (priority 1999, dated 2008).

Series [1] relates to embryogenic soybean callus. Kind of series: Effect of media constituents on growth of embryogenic soybean callus in B1-30. The class given is cell-based. The source says:
In another embodiment of the present invention, a novel culture media may be used to stimulate high frequency production of embryogenic soybean callus. Improvement varied with the genotype being cultured. […] The inclusion of one or more of four media constituents, coconut water, myoinositol, phytic acid and inorganic phosphate concentration, enhanced embryogenic callus production and allowed significant improvements to be made to transgenic clone production in terms of number of clones recovered, embryo morphology, and reduction in the time needed to identify the clones and regenerate plants from them. The medium of Ranch et al., 1985 (referred to herein as B1-30) was used as the basal medium. An example of the medium of the present invention is B1-30 3Co5My0.25PA0.5K (footnote, Table 5). Although this medium is a preferred emobodiment of growth medium, other conventional media may be utilized in the practice of the invention.
Coconut water has been included in tissue culture media for over 50 years. Coconut water is liquid taken from coconuts to promote growth in plant tissue cultures. It is deproteinized then filter-sterilized. An example is Sigma Biosciences' Cat. No. C5915. […] Most commonly coconut water is used at concentrations of between 5% and 10% by volume of the final culture medium. The role of coconut water in stimulating the growth of embryogenic callus in soybean was investigated and it was discovered that its effect on cotyledon explants routinely used to initiate embryogenic callus of soybean was detrimental when tested at these concentrations.
One key component of coconut water is myoinositol (Pollard et al., 1961). In an attempt to improve the growth of embryogenic soybean callus with components of coconut water, it was discovered that myoinositol was effective in this regard. Myoinositol has been included in tissue culture media for a variety of plant species. Although apparently not required for all species (Halperin, 1966), it is routinely included in media such as the widely used Murashige and Skoog formulation (Murashige and Skoog, 1962) at a concentration of 100 mg/l. It is at this concentration that it has been included in media used for the culture of embryogenic callus of soybean (e.g., see Ranch et al., 1985).
There are no known reports of the inclusion of phytic acid in culture media for any plant species. Soybean seeds are rich in natural chelating agents, the most prominent of which is phytic acid (Gibson and Ullah, 1990). Substantial amounts of phosphate are stored in seeds in the form of phytate (Raboy, 1990). It is possible that the capacity of phytic acid to sequester inorganic phosphate has a significant impact upon C partitioning into either starch or sucrose. At 1 gm/l in B1-30, embryogenic callus of a range of genotypes exuded starch, possibly confirming the impact of phytic acid on C partitioning. […] Best results over many passages were obtained with the addition of about 5 mg/l to about 250 mg/l phytic acid to the culture medium depending on the genotype.
Inorganic phosphorous in the form of KH2PO4, in excess of the amount conventionally used, was added to the base medium (B1-30) along with myoinositol and coconut water. This medium was tested against B1-30 supplemented with phytic acid in addition to KH2PO4, myoinositol and coconut water.

Series [2] has as its system DH5 cells. It is filed as cell-based, E. coli. As to conditions: 10 mg/l tetracycline.
Experimental: One microgram of supercoiled pSB1 was added to 1.0 ml of sterile ddH2O and briefly vortexed. […] For a control SB1 plasmid was used without the addition of any cationic polypeptides. Transformation of bacteria was carried out as described in Example 17. Briefly, subcloning efficient DH5 cells from Invitrogen were transformed. Ten microliters of cells were mixed with 0.1 ml of YP medium (10 g/L peptone, 5 g/L yeast extract, and 5 g/L NaCl). The cells were pipeted in the center of a YP plate (same as above plus 15.0 g/L agar) and allowed to dry in a laminar flow hood. The pSB1 plus or minus cationic polypeptides was introduced into the cells using an aerosol beam injector as described in parent U.S. patent application Ser. No. 09/724,265. After about 1 hour of incubation at 37° C., the aerosol beamed cells plus the YP medium were cut out as a slab and placed on YP medium with 10 mg/1 tetracycline. Plasmid SB1 harbors resistance to the antibiotic tetracycline. The cells were grown overnight at 37° C. and then evaluated for the presence of colonies that were growing on the medium. If the plasmid pSB1 were sheared it would not replicate in the cell, thus no antibiotic resistant colony would have formed, however, if the plasmid was not sheared it could replicate once inside the cell and an antibiotic colony would have appeared.
Series [3] concerns bacterial cells. It is filed as cell-based, E. coli. As to the method: Transformation of bacteria using the method of the invention was accomplished as follows: competent E. coli DH5 alpha (Gibco BRL) or HB101 cells were thawed on ice and 5 to 50 microliters were combined with 0.2 ml LB broth. The mixture was pipetted to the center of a plate of LB agar (1.5%) containing 100 mg/l ampicillin and allowed to dry. Aerosol beam parameters were the same as those described previously (Example 1) except as noted in this Example. A pUC-derived plasmid encoding for resistance to the antibiotic ampicillin was delivered to the bacterial cells, as is known in the art. The concentration of DNA ranged from about 1.0 to 1000 μg/ml in 10 mM Tris (pH7.0) or a carbohydrate molecule, such as 1 g/l sucrose. The nebulizing pressure was from about 10 to about 40 psi, preferably 30 to 40 psi. The entrainment temperature was maintained in a given experiment and ranged between experiments from about 24° to about 55° C., and was preferably maintained at about 42° to about 55° C. and most preferably at about 55° C. Various sample flow rates were tested ranging from about 0.25 ml/hour to about 2.0 ml/hour (about 4 μl/min. to about 33 μl/min.). Preferably the flow rate was about 8.0 μl/minute to about 17.0 μl/minute.
Nucleic acid and protein were simultaneously delivered into bacterial cells. Preparation of bacteria and parameters for the aerosol beam apparatus were the same as described previously for delivery of DNA into bacteria (Example 12). The same buffer, plasmid, and plasmid concentration was used as described in the transformation of bacteria. Ribonuclease A (RNASE A) (Sigma cat. no. R6513) was added to the DNA sample at a final concentration of 2.5 μg/ml.
As a control, RNASE A at the same concentration used for beaming was pipetted on the cells after the cells were beamed with DNA only. […] To verify that the RNASE A was not degrading the plasmid, the plasmid treated with RNASE A was run on a standard 1% agarose gel. After staining the DNA with ethidium bromide, the DNA appeared intact and no degradation was evident. […]

Where [4] appears, read: 1 microgram pSB1 in 1.0 ml plus 1.0 ul of 2.0 ug/ul polyamine.
Where [5] appears, read: 1 microgram pSB1 in 1.0 ml plus 2.0 ul of 20 ug/ul cationic polypeptide.

Where two headings read alike, the source gives them in different places.

With `O=P([O-])(O)O.[K+]` [KH2PO4], the “effect on embryogenic soybean callus” value in series [1] (500 and 1000 mg/l added to B1-30 with myoinositol and coconut water, with and without phytic acid) is given as “Beneficial effects”. For `O[C@H]1[C@H](O)[C@@H](O)[C@H](O)[C@@H](O)[C@H]1O` [myoinositol], the “effect on growth of embryogenic soybean callus” value in series [1] (up to 10 g/l, alone or in combination with coconut water) is “pronounced and beneficial effect”.

For `O=P(O)(O)O[C@H]1[C@H](OP(=O)(O)O)[C@@H](OP(=O)(O)O)[C@H](OP(=O)(O)O)[C@@H](OP(=O)(O)O)[C@H]1OP(=O)(O)O` [phytic acid, inositolhexaphosphoric acid], in series [1] (1, 5, 10, 50, 100, 250, 500 and 1000 mg/l in B1-30, initial culture passage and/or maintenance as stock culture), the “rate of growth of embryogenic callus” value is reported as “significantly increased”. For the same molecule, in series [1] (1 gm/l in B1-30, range of genotypes), the “growth of soybean callus after initial starch exudation” value was “grew very vigorously”. Also, in series [1] (3000 mg/l, callus browned and died), the “effect on embryogenic callus” value is given as “clear detrimental effect”.

As for `NCCCCNCCCN` [spermidine], in series [2] (setting [4]), the “transformed colonies growing per plate” value is recorded as “about 500 colonies per plate”. On the same count and under the same terms, as for `NCCCNCCCCNCCCN` [spermine], the entry is “about 500 colonies per plate”. On to Poly-L-Lysine, for which, in series [2] (setting [5]), the “transformed colonies growing per plate” value is “about 500 colonies per plate”. Same read-out and setting: then Poly-L-Ornithine, with “about 500 colonies per plate”.

B1: RNASE A: Ribonuclease A (Sigma cat. no. R6513) (protein, UniProt P61823 27-150, looked up)
Ribonuclease pancreatic: KETAAAKFERQHMDSSTSAASSSNYCNQMMKSRNLTKDRCKPVNTFVHESLADVQAVCSQKNVACKNGQTNCYQSYSTMSITDCRETGSSKYPNCAYKTTQANKHIIVACEGNPYVPVHFDASV
Consider B1, for which the “colonies on medium containing ampicillin” value is “no colonies were observed” in series [3] (2.5 μg/ml beamed together with DNA) and “transformed colonies grew” in series [3] (same concentration pipetted on the cells after beaming with DNA only).

B2: inactivated RNASE A: RNASE A inactivated with diethylpyrocarbonate (DEP) (protein, UniProt P61823 27-150, looked up)
Ribonuclease pancreatic: B1 Ribonuclease pancreatic
modifications: inactivated with diethylpyrocarbonate
In the case of B2, in series [3] (RNASE A inactivated with diethylpyrocarbonate, beamed with DNA), the transformation of bacteria entry was “normal transformation of bacteria”.
